The subject of this test is human bronchial epithelial cells, CFTR corrector, plate reader. Description: rescue of ΔF508 CFTR function, airway epithelium – human bronchial epithelial cells, plate reader, cherry-pick, two tests, dose response (AID 743267).
Where [1] appears, read: measured here: test 2 replicate run.
The mark [2] stands for this setting: measured here: test 1 replicate run.

By AC50 is commonly meant the concentration at which the activity in the assay is half-maximal.

Under setting [1], `COc1cc2c(cc1OC)C(C)N(C(=O)Nc1cc(C)cc(C)c1)CC2` (configuration not stated) displayed an AC50 of 3.03 µM.

With `COc1ccc(-c2oc3ccc(-c4cc(OC)c(OC)c(OC)c4)cc3c2C#Cc2ccccn2)cc1`, the AC50 under setting [1] was 26.7 µM.

Take `COc1ccccc1NS(=O)(=O)c1cc(-c2cnc(C3CC3)o2)ccc1C`: under setting [1], the half-maximal activity concentration (AC50) was 9.51 µM. The same measure, in the same setting: for `Cc1ccc(OCCNC(=O)c2cccc(S(=O)(=O)NCc3ccccc3)c2)cc1` the value was 1.64 µM; for `COc1ccc(CC(=O)NCc2ccc(-n3cccc3)cc2)cc1OC`, 3.53 µM; for `COCCNC(=O)NC12CC3(C)CC(C)(CC(C)(C3)C1)C2`, above 50 µM. For `CN1c2ccc(-c3ccc(F)cc3)cc2[C@H]2[C@H](CCN2S(=O)(=O)c2cccc(F)c2)[C@H]1CO`, the AC50 under setting [2] was 4.41 µM. This lies in the single-digit micromolar range. `O=C1c2cccc3c(O)ccc(c23)C(=O)N1c1ccc(Cl)cc1` yielded an AC50 under setting [1] of 16.8 µM.

Turning to `c1ccc(CCNc2nc(-c3ccccn3)nc3ccccc23)cc1`, the AC50 under setting [1] came to 2.77 µM. Under setting [1], `Cc1ccc(S(=O)(=O)NCc2ccccc2)cc1C(=O)N1CC(C)CC(C)C1` (configuration not stated) yielded a half-maximal activity concentration (AC50) above 50 µM. On the same count and under the same terms, the value for `O=c1ccc2c(-c3ccccc3)c3ccc(O)cc3oc-2c1` was 2.2 µM. `O=[N+]([O-])c1ccc(N2CCOCC2)c2c1no[n+]2[O-]`: the AC50 under setting [1] stood at 2.76 µM. Still for that read-out and setting: for `COc1ccc(-c2csc(NC(=S)NC(=O)/C=C/c3ccco3)n2)cc1OC` the value was 2.19 µM; for `COc1ccc2sc3cccc(NCCN(C)C)c3c(=O)c2c1`, 8.47 µM; for `CCN(CC)c1ccc(/C=N/NC(=O)c2cnccn2)cc1`, 2.12 µM. For the compound `COc1cc(C(=O)Nc2ccc3c(c2)ncn3C)cc(OC)c1OC`, under setting [1], the AC50 was found to be 3.9 µM.

Under setting [1], `CCOC(=O)CSC1=C(C#N)C(c2ccc(C)s2)CC(=O)N1` (configuration not stated) showed an AC50 of 5.6 µM. For the compound `O=C(Nc1ccccc1)c1nc[nH]c1C(=O)Nc1ccccc1F`, the AC50 under setting [1] amounted to 28.3 µM. Compared with the last compound, the AC50 is about 5.1-fold higher.

`COc1ccc(CCNc2c3ccccc3nc3ccccc23)cc1OC` returned an AC50 under setting [1] of 3.9 µM.

The compound `Cc1cc(C)c2nc(Cl)c(CN(Cc3ccco3)C(=O)Nc3ccccc3C)cc2c1` returned an AC50 under setting [1] of 2.87 µM. Consider `COc1ccc(N2CCc3c(C)nc4c(OC)cc(OC)cc4c32)cc1`, for which the AC50 under setting [1] is above 50 µM. On the same count and under the same terms, for `C=CCCC(=O)Nc1nc(C)c(-c2csc(Nc3cc(OC)ccc3OC)n2)s1` the value was 10.3 µM. Take `CC1(C(=O)NCc2ccco2)Cc2c(-c3ccc4c(c3)OCO4)ccnc2O1` (configuration not stated): the AC50 under setting [1] worked out at 1.88 µM. Still for that read-out and setting: the value for `COc1c(O[C@@H]2O[C@H](CO)[C@@H](O)[C@H](O)[C@H]2O)cc2c(c1OC)-c1ccc(SC)c(=O)cc1C(NC(C)=O)CC2` (some centres not stated) was above 50 µM. The same measure, in the same setting: the value for `Cc1ccc(-c2csc3ncn(CC#N)c(=O)c23)cc1C` was 35.7 µM; that for `COc1cc(/C=C(\C#N)C(=O)c2c[nH]c3ccccc23)cc(OC)c1O` was 8.32 µM; that for `Cc1cc(N/N=C/c2ccccc2O)c2ccccc2n1` was 21.1 µM. Same read-out and setting: for `Oc1ccc2ccccc2c1/C=C/c1ccc2c(Br)cc(Br)c(O)c2n1` the value was 21.5 µM; for `CCOc1ccc2[nH]c(C(=O)N/N=C/c3ccc(OC)cc3)cc2c1`, 36.4 µM. Take `O=c1c2ccccc2oc2cc(-c3ccc4[nH]ccc4c3)ccc12`: under setting [1], the AC50 came out at 1.94 µM. Same read-out and setting: for `CCN[C@H]1CN(CCCOC)S(=O)(=O)c2sc(S(N)(=O)=O)cc21` the value was 0.0398 µM.

In turn, `CN1c2ccc(-c3ccc(C#N)cc3)cc2[C@H]2[C@H](CCN2S(=O)(=O)c2cccc(F)c2)[C@@H]1CO` yielded an AC50 under setting [2] of 16 µM. This lies in the double-digit micromolar range. Under setting [1], `CC1(C(=O)NCc2cccs2)Cc2c(-c3ccc4c(c3)OCO4)ccnc2O1` (configuration not stated) displayed an AC50 of 2.69 µM. Same read-out and setting: the value for `COCCCNc1nnc(Cc2ccc(Cl)cc2)c(=O)[nH]1` was 3.78 µM. On the same count and under the same terms, the value for `O=c1ccc2[n+]([O-])c3ccc(O)cc3oc-2c1` was 26.3 µM. As to `Cc1ccc(-c2ccc3c(c2)O[C@H](CN(C)Cc2ccccn2)[C@@H](C)CN([C@@H](C)CO)S3(=O)=O)cc1`, the AC50 under setting [2] was 18 µM.

As for `Cc1ccnc(N2C(=O)c3cccc4c([N+](=O)[O-])ccc(c34)C2=O)c1`, under setting [1], the AC50 is 6.5 µM.

`CC1CN(S(=O)(=O)c2cccc(C(=O)Nc3cc(Cl)ccc3N3CCOCC3)c2)CC(C)O1` (configuration not stated) gave an AC50 under setting [1] above 50 µM. As to `CCN(C(=O)CSc1nc2ccccc2c(=O)n1-c1ccccc1F)C1CCS(=O)(=O)C1` (configuration not stated), under setting [1], the AC50 is 0.253 µM. Same read-out and setting: the value for `O=C(N/N=C/c1cccs1)c1cc(C2CC2)nc2ccccc12` was 6.27 µM. On to `COc1ccc(S(=O)(=O)Nc2ccc3c(c2)C(=O)N([C@H](C)CO)C[C@@H](C)[C@@H](CN(C)Cc2ccc(C(F)(F)F)cc2)O3)cc1`, for which the AC50 under setting [2] is above 50 µM.

On to `Cn1c(CC(=O)NN)c(Sc2ccccc2)c2ccccc21`, for which the AC50 under setting [1] is above 50 µM. Still for that read-out and setting: for `COc1cc(/C=C/C(=O)c2ccc3c(c2)OCO3)cc(Cl)c1O` the value was 15.6 µM; for `CC1CCN(C(=O)C2COc3ccccc3O2)CC1` (configuration not stated), 35.1 µM; for `CC1=C/C(=C\C=C(C#N)C#N)N(C)c2ccccc21`, 12.9 µM. `Fc1ccc(/C=N/NC(=S)Nc2ccc(Cl)cc2Cl)cc1` yielded an AC50 under setting [1] of 32.2 µM. Same read-out and setting: the value for `Cc1ccc(S(=O)(=O)N[C@H](C(=O)OCC(=O)NC(=O)C2CCCCC2)C(C)C)cc1` was 38.6 µM.

These data come from PubChem BioAssay AID743267 (Broad Institute, 2014).
